Source: patent US7288541B2, “Propylcarbamate derivatives as inhibitors of serine and cysteine proteases” (SmithKline Beecham Corporation, priority 2001, dated 2007)
Like-named read-outs stand apart in the source and are kept apart here.

Biological target: T1, human cathepsin K (Homo sapiens, UniProt P43235)
T1 construct: The proform of cathepsin K was converted to mature cathepsin K by brief exposure to pH 4; made in house; host or cells: baculovirus; Trichoplusia ni High Five cells (virus raised in Sf-9)
T1 sequence (P43235 115-329): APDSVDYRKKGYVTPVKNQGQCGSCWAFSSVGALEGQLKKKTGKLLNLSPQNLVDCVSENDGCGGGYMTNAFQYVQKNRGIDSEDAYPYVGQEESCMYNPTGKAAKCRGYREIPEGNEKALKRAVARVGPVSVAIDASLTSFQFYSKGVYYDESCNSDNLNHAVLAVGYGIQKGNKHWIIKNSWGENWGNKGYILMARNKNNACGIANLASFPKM
Test: Cathepsin K inhibition, fluorogenic substrate Cbz-Phe-Arg-AMC, progress curve method
Format: biochemical
Description: All assays for cathepsin K were carried out with human and rat recombinant enzyme. Assays for cathepsins S & V were also carried out with human recombinant enzyme. Assays for human cathepsins B, H, and L were carried out with enzyme prepared from human liver tissue. […] A stock substrate solution of Cbz-Phe-Arg-AMC was prepared at a concentration of 50 mM in dimethyl sulfoxide. This substrate was diluted into the assay for a final substrate concentration of 10 μM in the rat cathepsin K, human cathepsin K, and human cathepsin B assays; a final substrate concentration of 5 μM in the human cathepsin L assay; and a final substrate concentration of 2 μM in the human cathepsin V assay.
All assays contained 10% dimethyl sulfoxide. […] All assays were conducted at 30° C. Product fluorescence (excitation at 360 nm; emission at 440 nm, (except cathepsin H which used excitation at 340 nm; emission at 420 nm)) was monitored with a PerSeptive Biosystems Cytofluor II fluorescence plate reader. Product progress curves were generated over 2.3 h monitoring the formation of 7-amino-4-methylcoumarin product (or β-naphthalamide for cathepsin H).
Human and Rat Cathepsin K:
The cells continued to grow for 72 h post-infection, before the virus was harvested by centrifugation at 1400×g for 30 min.
One and one-half liters of Trichoplusia ni (T. ni) High Five (TM) cells [JRH Biosciences, Woodland, Calif. […] The cells were grown for 24 h at 28° C., 50 RPM, and 50% dissolved oxygen. […] Media were separated from cells at a rate of 1 L/min using the Centritech 100 (TM) continuous-flow centrifuge (DuPont) operating at 200×g.
Protein Purification: Media (human and rat) were filtered through a Whatman 3 filter, and then loaded onto a 25 mL Poros HS II (26 mm×47 mm) cation exchange column equilibrated in 25 mM sodium acetate at pH 5.5 (equilibration buffer). The column was washed until the absorbance reached the baseline value, and then the protein was eluted with a linear gradient from 0–2 M sodium chloride in the equilibration buffer. Column fractions were analyzed by SDS-PAGE, N-terminal sequencing, and mass spectrometry. Fractions containing the proform of cathepsin K were pooled and frozen at −80° C. The proform was concentrated in an Amicon Centriprep 10 and fractionated with a Superdex 75 column (26 mm×600 mm, Pharmacia) equilibrated in 400 mM sodium chloride, 25 mM sodium acetate at pH 5.5.
Cathepsin K Activation: The proform of cathepsin K was converted to mature cathepsin K by brief exposure to pH 4 in the presence of 5 mM L-cysteine. Typically, 5 mM L-cysteine was added to 10 mL of approximately 1 mg/mL procathepsin K. One mL of this solution was diluted ten-fold into 450 mM sodium acetate at pH 4.0 containing 5 mM L-cysteine. This solution was reacted at 23° C. for 2 min before neutralization with 2 mL 1.8 M sodium acetate at pH 6.0. The neutralized sample was added to the remaining 9 mL of procathepsin K. The mixture was incubated at 4° C. for 2–3 days. The activated cathepsin K was chromatographed on a Poros HS II column as described above.
Potential inhibitors were evaluated using the progress curve method. Assays were carried out in the presence of variable concentrations of test compound. Reactions were initiated by addition of buffered solutions of inhibitor and substrate to enzyme. Data analysis was conducted according to one of two procedures depending on the appearance of the progress curves in the presence of inhibitors. […] Ki values were calculated from IC50 values using equation 2 assuming a competitive model.

[1] = Table 1, Inhibition of Cathepsin K (Ki in nM), recombinant human enzyme, 10 μM substrate, pH 5.5, 30° C., read-out: hCat K IC50

## CC(C)(C)[C@@H](Cn1ccc(-c2ccc(C(F)(F)F)cc2)n1)OC(=O)NCC(=O)CNS(=O)(=O)c1ccccn1 [Example 1, (1S)-2,2-dimethyl-1-({3-[4-(trifluoromethyl)phenyl]-1H-pyrazol-1-yl}methyl)propyl 2-oxo-3-[(2-pyridinylsulfonyl)amino]propylcarbamate]
[1]
  IC50: 10 to 100 nM

## C[C@H](NC(=O)O[C@H](Cn1ccc(-c2ccc(C(F)(F)F)cc2)n1)C(C)(C)C)C(=O)CNS(=O)(=O)c1ccccn1 [Example 2, (1S)-2,2-dimethyl-1-({3-[4-(trifluoromethyl)phenyl]-1H-pyrazol-1-yl}methyl)propyl (1S)-1-methyl-2-oxo-3-[(2-pyridinylsulfonyl)amino]propylcarbamate]
[1]
  IC50: 10 to 100 nM

## CCCC[C@H](NC(=O)O[C@H](Cn1ccc(-c2ccc(C(F)(F)F)cc2)n1)C(C)(C)C)C(=O)CNS(=O)(=O)c1ccccn1 [Example 3, (1S)-2,2-dimethyl-1-({3-[4-(trifluoromethyl)phenyl]-1H-pyrazol-1-yl}methyl)propyl (1S)-1-{[(2-pyridinylsulfonyl)amino]acetyl}pentylcarbamate]
[1]
  IC50: 10 to 100 nM

## CCCC[C@H](NC(=O)O[C@H](Cn1ccc(-c2ccc(C(F)(F)F)cc2)n1)C(C)(C)C)C(=O)CNC(=O)N1CCOCC1 [Example 4, (1S)-2,2-dimethyl-1-({3-[4-(trifluoromethyl)phenyl]-1H-pyrazol-1-yl}methyl)propyl (1S)-1-{[(4-morpholinylcarbonyl)amino]acetyl}pentylcarbamate]
  IC50: 1000 to 10000 nM

## CCCC[C@H](NC(=O)O[C@H](Cn1ccc(-c2ccc(C(F)(F)F)cc2)n1)C(C)(C)C)C(=O)CNc1cccc(F)n1 [Example 5, (1S)-2,2-dimethyl-1-({3-[4-(trifluoromethyl)phenyl]-1H-pyrazol-1-yl}methyl)propyl (1S)-1-{[(6-fluoro-2-pyridinyl)amino]acetyl}pentylcarbamate]
[1]
  IC50: < 10 nM

## CCCC[C@H](NC(=O)O[C@H](Cn1ccc(C(F)(F)F)n1)C(C)(C)C)C(=O)CNS(=O)(=O)c1ccccn1 [Example 7, (1S)-2,2-dimethyl-1-{[3-(trifluoromethyl)-1H-pyrazol-1-yl]methyl}propyl (1S)-1-{[(2-pyridinylsulfonyl)amino]acetyl}pentylcarbamate]
[1]
  IC50: 10 to 100 nM

## C[C@H](NC(=O)O[C@H](Cn1ccc(C(F)(F)F)n1)C(C)(C)C)C(=O)CNS(=O)(=O)c1ccccn1 [Example 8, (1S)-2,2-dimethyl-1-{[3-(trifluoromethyl)-1H-pyrazol-1-yl]methyl}propyl (1S)-1-methyl-2-oxo-3-[(2-pyridinylsulfonyl)amino]propylcarbamate]
[1]
  IC50: 100 to 1000 nM

## CCCC[C@H](NC(=O)O[C@H](c1nc2cc(C(F)(F)F)ccc2s1)C(C)(C)C)C(=O)CNS(=O)(=O)c1ccccn1 [Example 9, (1S)-2,2-dimethyl-1-[5-(trifluoromethyl)-1,3-benzothiazol-2-yl]propyl (1S)-1-{[(2-pyridinylsulfonyl)amino]acetyl}pentylcarbamate]
[1]
  IC50: 10 to 100 nM

## C[C@H](NC(=O)O[C@H](c1nc2cc(C(F)(F)F)ccc2s1)C(C)(C)C)C(=O)CNS(=O)(=O)c1ccccn1 [Example 10, (1S)-2,2-dimethyl-1-[5-(trifluoromethyl)-1,3-benzothiazol-2-yl]propyl (1S)-1-methyl-2-oxo-3-[(2-pyridinylsulfonyl)amino]propylcarbamate]
[1]
  IC50: 100 to 1000 nM

## CCCC[C@H](NC(=O)O[C@H](Cn1cc(-c2ccc(C(F)(F)F)cc2)cn1)C(C)(C)C)C(=O)CNS(=O)(=O)c1ccccn1 [Example 11, (1S)-2,2-dimethyl-1-({4-[4-(trifluoromethyl)phenyl]-1H-pyrazol-1-yl}methyl)propyl (1S)-1-{[(2-pyridinylsulfonyl)amino]acetyl}pentylcarbamate]
[1]
  IC50: 10 to 100 nM

## CCCC[C@H](NC(=O)O[C@H](Cn1nccc1-c1ccc(C(F)(F)F)cc1)C(C)(C)C)C(=O)CNS(=O)(=O)c1ccccn1 [Example 12, (1S)-2,2-dimethyl-1-({5-[4-(trifluoromethyl)phenyl]-1H-pyrazol-1-yl}methyl)propyl (1S)-1-{[(2-pyridinylsulfonyl)amino]acetyl}pentylcarbamate]
[1]
  IC50: 10 to 100 nM

## CCCC[C@H](NC(=O)O[C@H](Cn1ccc(-c2cccnc2)n1)C(C)(C)C)C(=O)CNS(=O)(=O)c1ccccn1 [Example 13, (1S)-2,2-dimethyl-1-{[3-(3-pyridinyl)-1H-pyrazol-1-yl]methyl}propyl (1S)-1-{[(2-pyridinylsulfonyl)amino]acetyl}pentylcarbamate]
[1]
  IC50: < 10 nM

## CCCC[C@H](NC(=O)O[C@H](Cn1ccc(-c2ccncc2)n1)C(C)(C)C)C(=O)CNS(=O)(=O)c1ccccn1 [Example 14, (1S)-2,2-dimethyl-1-{[3-(4-pyridinyl)-1H-pyrazol-1-yl]methyl}propyl (1S)-1-{[(2-pyridinylsulfonyl)amino]acetyl}pentylcarbamate]
[1]
  IC50: < 10 nM

## CCCC[C@H](NC(=O)O[C@H](Cn1cnc2cc(Cl)c(Cl)cc21)C(C)(C)C)C(=O)CNS(=O)(=O)c1ccccn1 [Example 15, (1S)-1-[(5,6-dichloro-1H-benzimidazol-1-yl)methyl]-2,2-dimethylpropyl (1S)-1-{[(2-pyridinylsulfonyl)amino]acetyl}pentylcarbamate]
[1]
  IC50: < 10 nM

## CC(C)(C)[C@@H](Cn1cnc2cc(Cl)c(Cl)cc21)OC(=O)NCC(=O)CNS(=O)(=O)c1ccccn1 [Example 17, (1S)-1-[(5,6-dichloro-1H-benzimidazol-1-yl)methyl]-2,2-dimethylpropyl 2-oxo-3-[(2-pyridinylsulfonyl)amino]propylcarbamate]
[1]
  IC50: < 10 nM

## CCCC[C@H](NC(=O)O[C@H](Cn1cnc(-c2ccc(C(F)(F)F)cc2)c1)C(C)(C)C)C(=O)CNS(=O)(=O)c1ccccn1 [Example 18, (1S)-2,2-dimethyl-1-({4-[4-(trifluoromethyl)phenyl]-1H-imidazol-1-yl}methyl)propyl (1S)-1-{[(2-pyridinylsulfonyl)amino]acetyl}pentylcarbamate]
[1]
  IC50: < 10 nM

## CCCC[C@H](NC(=O)O[C@H](COc1ccc(-n2ccnc2)cc1)C(C)(C)C)C(=O)CNS(=O)(=O)c1ccccn1 [Example 19, (1S)-1-{[4-(1H-imidazol-1-yl)phenoxy]methyl}-2,2-dimethylpropyl (1S)-1-{[(2-pyridinylsulfonyl)amino]acetyl}pentylcarbamate]
[1]
  IC50: < 10 nM
